Source: BigSolDB 2.1

Row | solubility (mole fraction) (in n-hexane, 293.15 K) | solubility (mole fraction) (in n-hexane, 298.15 K) | solubility (mole fraction) (in n-hexane, 303.15 K) | solubility (mole fraction) (in n-hexane, 308.15 K) | solubility (mole fraction) (in n-hexane, 313.15 K) | solubility (mole fraction) (in n-octanol, 293.15 K) | solubility (mole fraction) (in n-octanol, 298.15 K) | solubility (mole fraction) (in n-octanol, 303.15 K) | solubility (mole fraction) (in n-octanol, 308.15 K) | solubility (mole fraction) (in n-octanol, 313.15 K) | SMILES
1 | 4.22e-05 | 5.67e-05 | 6.92e-05 | 8.55e-05 | 0.000105 | 0.00362 | 0.00423 | 0.00511 | 0.0058 | 0.00664 | CC12CC3CC(C)(C1)CC(NS(=O)(=O)c1ccc([N+](=O)[O-])cc1)(C3)C2
2 | 0.000265 | 0.000307 | 0.000366 | 0.000444 | 0.000495 | 0.00383 | 0.00452 | 0.00562 | 0.0068 | 0.00809 | Cc1cc(C)c(S(=O)(=O)NC23CC4CC(CC(C4)C2)C3)c(C)c1
